Results on one molecule are retold here after BindingDB's records for doi:10.1021/jm960248s (Smithkline Beecham Pharmaceuticals, 1996).

In this assay the target is fMet-Leu-Phe receptor (Homo sapiens) (UniProt P21462). Kind of assay: Inhibitory concentration against fMLP receptor with [3H]- fMLP in receptor binding assay.
fMet-Leu-Phe receptor (Homo sapiens), sequence (P21462 whole entry, looked up): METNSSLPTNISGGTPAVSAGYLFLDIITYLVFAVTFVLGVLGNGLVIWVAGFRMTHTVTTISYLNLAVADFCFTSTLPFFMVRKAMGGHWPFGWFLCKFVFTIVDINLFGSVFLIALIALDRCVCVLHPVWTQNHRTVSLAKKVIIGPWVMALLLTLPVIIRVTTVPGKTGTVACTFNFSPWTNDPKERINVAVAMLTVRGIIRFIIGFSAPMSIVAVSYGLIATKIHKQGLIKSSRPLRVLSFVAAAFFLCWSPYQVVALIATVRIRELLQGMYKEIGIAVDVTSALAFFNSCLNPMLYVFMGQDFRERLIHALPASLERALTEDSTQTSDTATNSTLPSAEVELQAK

The IC50 is the midpoint of a concentration-inhibition curve. Lower therefore signals greater potency. `O=C(O)/C=C/c1nc(CSc2c(Cl)cccc2Cl)ccc1OCCc1ccccc1` [Ticolubant] registered an IC50 of 3.25 µM.
